These results are taken from patent publication US9738629B2, “Bridged ring compounds as Hepatitis C virus inhibitors, pharmaceutical compositions and uses thereof” (SUNSHINE LAKE PHARMA CO., LTD., priority 2014, dated 2017).

One assay has as its system HCV GT1a replicon. Description: HCV replicon assay, genotype 1a, in Huh-7 cells. Type of assay: cell-based. As to conditions: Hepatitis C virus; Huh-7 cells stably transfected with HCV GT1a replicon, 72 hours incubation; luciferase or NEO gene qPCR readout; read-out: EC50 against HCV 1a genotype. The method, then: (§1) HCV Replicon System was utilized as a screening model in the present disclosure to evaluate the antivirus effects of the compounds disclosed herein against HCV. HCV Replicon assay was first described in Science, 1999, 285 (5424), 110-3. […] To determine the potential anti-HCV effects of the test compounds, luciferase assay and antibiotic Neomycin resistance gene were tested according to the method described in Science. 1999 Jul. 2; 285 (5424), 110-3 and J. Virol. 2003 March; 77 (5), 3007-19.
(§2) In a word, the compounds disclosed herein were tested by using human hepatic carcinoma cell line Huh-7 which is transfected stably with HCV GT1a, GT1b or GT2a replicon respectively, and resistant cells of Y93H, L31F, P32L or I302V and wild-type cells HCV 1b. HCV Replicon System disclosed herein contains G418 resistance gene NEO and Luciferase Reporter Gene, and the level of HCV replication in host cells is detected and characterized by the expression level of the NEO gene or Luciferase Reporter Gene, so the effects of the compounds herein inhibit HCV replication can be evaluated in this system. In this article, a real-time quantitative polymerase chain reaction (qPCR) method was used to detect NEO gene expression level, and chemiluminescence method was used to test Luciferase Reporter Gene expression level.
(§3) The Huh-7 cells transfected with HCV replicons system were seeded into 96-well plates (8,000 cells in 125 μL/well) respectively; each test compound was diluted to desired concentration using 5-fold serial dilutions protocol, 10 doses in duplicate (initial concentration for 10 nM) and added to wells with POD™ 810 Plate Assembler. The plates were incubated in a CO2 incubator for 72 hours; after that, 40 μL of Luciferase assay substrate (Promega Bright-Glo) was added to each well, and detected by a chemiluminescence detection system (Topcount Microplate Scintillation and Luminescence Counter) 5 minutes later; the EC50 (half-maximal effective concentration, concentration for 50% of maximal effect) values of test compounds were analyzed by GraphPad Prism software. In this paper, experiments were repeated twice and set the wells without compounds as negative control.
as §3, with “hours;” for “hours; after that, 40 μL of Luciferase assay substrate (Promega Bright-Glo) was added to each well,”, “the expression level of the NEO gene expression with real-time quantitative PCR” for “by a chemiluminescence detection system (Topcount Microplate Scintillation and Luminescence Counter) 5 minutes”, “software, respectively.” for “software.”
In general terms: A replicon is a self-replicating genome or part of one, used to study replication in cells.

In the next assay the test system is HCV GT1b replicon. Put plainly: HCV replicon assay, genotype 1b, in Huh-7 cells. Type of assay: cell-based. As to conditions: Hepatitis C virus; Huh-7 cells stably transfected with HCV GT1b replicon, 72 hours incubation; luciferase or NEO gene qPCR readout; read-out: EC50 against HCV 1b genotype. The procedure:
as §1, §2, §3
as §3, with “hours;” for “hours; after that, 40 μL of Luciferase assay substrate (Promega Bright-Glo) was added to each well,”, “the expression level of the NEO gene expression with real-time quantitative PCR” for “by a chemiluminescence detection system (Topcount Microplate Scintillation and Luminescence Counter) 5 minutes”, “software, respectively.” for “software.”

By EC50 is commonly meant the concentration that produces a half-maximal response. With `COC(=O)N[C@H](C(=O)N1C(c2ncc(-c3ccc(-c4ccc(-c5cnc([C@@H]6CC[C@H](C)N6C(=O)[C@@H](NC(=O)OC)C(C)C)[nH]5)c5c4C4CCC5C4)cc3)[nH]2)CC[C@@H]1C)C(C)C` (stereo partly shown) [Example 1], the EC50 was determined as 19 pM in the assay on HCV GT1a replicon and 4 pM in the assay on HCV GT1b replicon.
On to `COC(=O)N[C@H](C(=O)N1C[C@@H](C)C[C@H]1c1nc2ccc(-c3ccc(-c4ccc(-c5cnc(C6CC[C@H](C)N6C(=O)[C@@H](NC(=O)OC)C(C)C)[nH]5)cc4)c4c3C3CCC4C3)cc2[nH]1)C(C)C` (stereo partly shown) [Example 2], for which the EC50 with HCV GT1a replicon and with HCV GT1b replicon was 4 pM each time.
Consider `COC(=O)N[C@H](C(=O)N1C(c2ncc(-c3ccc(-c4ccc(-c5ccc6nc([C@@H]7CC[C@H](C)N7C(=O)[C@@H](NC(=O)OC)C(C)C)[nH]c6c5)c5c4C4CCC5C4)cc3)[nH]2)CC[C@@H]1C)C(C)C` (stereo partly shown) [Example 3], for which the EC50 with HCV GT1a replicon stood at 8 pM; in the assay with HCV GT1b replicon it was 5 pM.
On the same counts, the results for `COC(=O)N[C@H](C(=O)N1C[C@@H](C)CC1c1ncc(-c2ccc(-c3ccc(-c4ccc5nc([C@@H]6CC[C@H](C)N6C(=O)[C@@H](NC(=O)OC)C(C)C)[nH]c5c4)c4c3C3CCC4C3)cc2)[nH]1)C(C)C` (stereo partly shown) [Example 4] are 131 pM and 5 pM.
With `COC(=O)NC(C(=O)N1C[C@@H](C)CC1c1ncc(-c2ccc(-c3ccc(-c4ccc5nc([C@@H]6CC[C@H](C)N6C(=O)[C@@H](NC(=O)OC)C(C)C)[nH]c5c4)c4c3C3CCC4C3)cc2)[nH]1)c1ccccc1` (stereo partly shown) [Example 5], the EC50 stood at 98 pM in the assay on HCV GT1a replicon and 7 pM in the assay with HCV GT1b replicon.
Consider `COC(=O)N[C@H](C(=O)N1C[C@@H](C)C[C@H]1c1ncc(-c2ccc(-c3ccc(-c4ccc5nc([C@@H]6CC[C@H](C)N6C(=O)[C@H](NC(=O)OC)c6ccccc6)[nH]c5c4)c4c3C3CCC4C3)cc2)[nH]1)C(C)C` (stereo partly shown) [Example 6], for which the EC50 worked out at 32 pM in the assay on HCV GT1a replicon and 6 pM in the assay on HCV GT1b replicon.
The like results for `COC(=O)N[C@H](C(=O)N1C[C@@H](C)C[C@H]1c1ncc(-c2ccc(-c3ccc(-c4ccc5nc([C@@H]6CC[C@H](C)N6C(=O)[C@@H](NC(=O)OC)C6CCOCC6)[nH]c5c4)c4c3C3CCC4C3)cc2)[nH]1)C(C)C` (stereo partly shown) [Example 7] were, in that order, 87 pM and 5 pM.
Take `CC[C@H]1CC[C@@H](c2nc3ccc(-c4ccc(-c5ccc(-c6cnc([C@@H]7C[C@H](C)CN7C(=O)[C@@H](NC(=O)OC)C(C)C)[nH]6)cc5)c5c4C4CCC5C4)cc3[nH]2)N1C(=O)[C@@H](NC(=O)OC)C(C)C` (stereo partly shown) [Example 8]: the EC50 in the assay with HCV GT1a replicon stood at 63 pM; in the assay with HCV GT1b replicon, 9 pM.
For the compound `COC[C@H]1C[C@@H](c2ncc(-c3ccc(-c4ccc(-c5ccc6nc([C@@H]7CC[C@H](C)N7C(=O)[C@@H](NC(=O)OC)C(C)C)[nH]c6c5)c5c4C4CCC5C4)cc3)[nH]2)N(C(=O)[C@@H](NC(=O)OC)C(C)C)C1` (stereo partly shown) [Example 9], the results for the EC50 in the assay on HCV GT1a replicon and with HCV GT1b replicon were 123 pM and 8 pM, respectively.
On the same counts, the results for `CCC(C)[C@H](NC(=O)OC)C(=O)N1C[C@@H](CC)C[C@H]1c1ncc(-c2ccc(-c3ccc(-c4ccc5nc([C@@H]6CC[C@H](C)N6C(=O)[C@@H](NC(=O)OC)C(C)C)[nH]c5c4)c4c3C3CCC4C3)cc2)[nH]1` (stereo partly shown) [Example 10] are 57 pM and 9 pM.
In the case of `COC(=O)N[C@H](C(=O)N1[C@@H](C)CC[C@H]1c1nc2ccc(-c3ccc(-c4ccc(-c5cnc([C@@H]6C[C@@H]7CCC[C@@H]7N6C(=O)[C@@H](NC(=O)OC)[C@@H](C)OC)[nH]5)cc4)c4c3C3CCC4C3)cc2[nH]1)C(C)C` (stereo partly shown) [Example 11], the EC50 in the assay on HCV GT1a replicon worked out at 235 pM; with HCV GT1b replicon it was 12 pM.
